Entries after “also recorded” stand apart in the source; their conditions may differ.
Assays:
[1] = single surfactant; cited from earlier work
[2] = system: pig eyes with intact epithelium; experiment: Relative fluorescence (F/Fo) of cross-linked corneal flaps, surfactants in riboflavin solution (Study 4)
Experimental: Pig eyes shipped overnight on ice from an abattoir (SiouxPreme, Sioux City, IA) were rinsed in saline. The eyes with intact epithelium were soaked with one of the test solutions below for 20 minutes in an incubator set at 37° C. by using a rubber ring to hold the solution on top.
For a Group A of the pig eyes, the following riboflavin formulations were used: • (a1) 0.25% riboflavin solution containing BAC (PARACEL™, Avedro, Inc., Waltham, MA); • (a2) 0.1% w.v. riboflavin solution containing saline (PHOTREXA ZD™ Avedro, Inc., Waltham, MA) with added riboflavin to match the riboflavin content (0.25%) in solution (a1); • (a3) solution (a2) with 1% Polidocanol; • (a4) solution (a2) with 5% Polidocanol; and • (a5) solution (a2) with 10% Polidocanol.
The epitheliums of eyes in Group A were removed with a dull blade after the eyes were soaked in one of the solutions and irradiated pan-corneally on air with a top hat beam (3% root mean square) for 4 minutes with 365-nm light source (UV LED NCSU033B[T]; Nichia Co., Tokushima, Japan) at a chosen irradiance of 30 mW/cm^2 which was measured with a power sensor (model PD-300-UV; Ophir, Inc., Jerusalem, Israel) at the corneal surface. Corneal flaps (approximately 200 μm thick) were excised from the eyes with aid of an Intralase femtosecond laser (Abbot Medical Optics, Santa Ana, CA). The average thickness of the corneal flaps was calculated as a difference between the measurements before and after the excision from the eyes with an ultrasonic Pachymeter (DGH Technology, Exton, PA). The flaps were washed with distilled water and dried in a vacuum until the weight change became less than 10% (Rotary vane vacuum pump RV3 A652-01-903, BOC Edwards, West Sussex, UK). […] Papain digests were diluted 0.5 times with 1×BBBS and fluorescence of the solutions was measured with excitation of 360 nm in a QM-40 Spectrofluorometer (Photon Technology Int., London, Ontario, Canada). The fluorescence of the papain buffer was taken into account by measuring fluorescence in the absence of tissue and subtracting this value from the fluorescence of the samples. […]

[3] = in riboflavin solution, pig eyes

Q: Which HLB number [1] does the source give for CCCCCCCCCc1ccc(OCCOCCOCCOCCOCCOCCOCCOCCOCCO)cc1 [IGEPAL CO-630] here?
A: Its HLB number is 13.

Q: With “Polyoxyethylene (9) lauryl ether [Polidocanol]” as the molecule, how does the “corrosion and damage to the epithelium” value ([2]; corneal epithelium) read?
A: Its value is “do not cause damage to the epithelium; also recorded: less corrosive and damaging to the epithelium than BAC”.

Q: What about the “enhancing permeability and generating cross-linking activity, compared with other surfactants” value [2, 3] of the same molecule?
A: Its value is “more effective than many other surfactants”.

Q: What about the “enhancing permeability in the epithelium and generating cross-linking activity, compared with BAC” value [2, 3] of the same molecule?
A: The value was “far more effective and efficient than BAC”.
